Measured values from patent publication US20240225056A1, “Rhodotorula Capable of Efficiently Degrading Ethyl Carbamate and Application Thereof” (priority 2022, published 2024).

The compounds below were run on R. toruloides DL-XSY01 (assay: Antibiotic sensitivity test, disc diffusion method). Conditions: YPD-agar, 28° C., 24 h.
Format: cell-based
Experimental: The antibiotic sensitivity spectrum of the R. toruloides DL-XSY01 was characterized by using a disc diffusion method. […] The above medium with each type of paper was statically cultured at 28° C. for 24 h, and then the diameter of an inhibition zone was measured and counted; and analysis was performed on the drug resistance R (≤14 mm), intermediate-phase I (14-20 mm) or sensitivity S (≥20 mm), with three replicates for each group.

Compound | Antibiotic sensitivity of DL-XSY01 (in words) | Antibiotic sensitivity of DL-XSY01 (inhibition zone class)
CC1(C)S[C@@H]2[C@H](NC(=O)Cc3ccccc3)C(=O)N2[C@H]1C(=O)O [Penicillin G] | sensitive | S (sensitivity S (≥20 mm))
CC[C@H]1OC(=O)[C@H](C)[C@@H](O[C@H]2C[C@@](C)(OC)[C@@H](O)[C@H](C)O2)[C@H](C)[C@@H](O[C@@H]2O[C@H](C)C[C@H](N(C)C)[C@H]2O)[C@](C)(O)C[C@@H](C)C(=O)[C@H](C)[C@@H](O)[C@]1(C)O [Erythromycin] | sensitive | S (sensitivity S (≥20 mm))
[H]/N=C(/N)N[C@H]1[C@H](O)[C@@H](O)[C@H](O[C@@H]2O[C@@H](C)[C@](O)(C=O)[C@H]2O[C@@H]2O[C@@H](CO)[C@H](O)[C@@H](O)[C@@H]2NC)[C@@H](N/C(N)=N\[H])[C@@H]1O [Streptomycin] | sensitive | S (sensitivity S (≥20 mm))
NCC[C@H](O)C(=O)N[C@@H]1C[C@H](N)[C@@H](O[C@H]2O[C@H](CN)[C@@H](O)[C@H](O)[C@H]2O)[C@H](O)[C@H]1O[C@H]1O[C@H](CO)[C@@H](O)[C@H](N)[C@H]1O [Amikacin] | sensitive | S (sensitivity S (≥20 mm))
Gentamicin | sensitive | S (sensitivity S (≥20 mm))
CC1(C)S[C@@H]2[C@H](NC(=O)[C@H](N)c3ccccc3)C(=O)N2[C@H]1C(=O)O [Ampicillin] | sensitive | S (sensitivity S (≥20 mm))
CN(C)[C@@H]1C(O)=C(C(N)=O)C(=O)[C@@]2(O)C(O)=C3C(=O)c4c(O)cccc4[C@@](C)(O)[C@H]3C[C@@H]12 [Tetracycline] |  | S (sensitivity S (≥20 mm))
Cc1nnc(SCC2=C(C(=O)O)N3C(=O)[C@@H](NC(=O)Cn4cnnn4)[C@H]3SC2)s1 [Cefazolin] | sensitive | S (sensitivity S (≥20 mm))
CN(C)c1ccc(O)c2c1C[C@H]1C[C@H]3[C@H](N(C)C)C(O)=C(C(N)=O)C(=O)[C@@]3(O)C(O)=C1C2=O [Minocycline] |  | S (sensitivity S (≥20 mm))
CN[C@H](CC(C)C)C(=O)N[C@H]1C(=O)N[C@@H](CC(N)=O)C(=O)N[C@H]2C(=O)N[C@H]3C(=O)N[C@H](C(=O)N[C@H](C(=O)O)c4cc(O)cc(O)c4-c4cc3ccc4O)[C@H](O)c3ccc(c(Cl)c3)Oc3cc2cc(c3O[C@@H]2O[C@H](CO)[C@@H](O)[C@H](O)[C@H]2O[C@H]2C[C@](C)(N)[C@H](O)[C@H](C)O2)Oc2ccc(cc2Cl)[C@H]1O [Vancomycin] | sensitive | S (sensitivity S (≥20 mm))
CC1=C(C(=O)O)N2C(=O)[C@@H](NC(=O)[C@H](N)c3ccccc3)[C@H]2SC1 [Cephalexin] | moderately sensitive | I (intermediate-phase I (14-20 mm))
